Drawing on PubChem BioAssay AID292 (DTP/NCI, 2004), this text covers T/C for 21 molecules.

Where “and” joins values, the source holds several entries; their conditions need not be identical. Equal entries are not always repeated. Toxic doses and inconclusive results are not listed.

The test system of this experiment is B6C3F1 mice, ip Sarcoma M5076, median survival T/C. The experiment in a line: NCI In Vivo Anticancer Drug Screen. Data for tumor model Sarcoma M5076 (intraperitoneal) in B6C3F1 mice. The note with it: endpoint: median survival time, higher = longer survival. An outline of the steps: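 The readout is a ratio of survival in drug-treated animals to survival in animals given vehicle alone, taken in mice bearing a transplanted tumour line.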

The mark [1] stands for this setting: dose: 37.5 mg/kg/injection, schedule: Q04DX004 (ip), vehicle: saline with Tween-80.
[2] abbreviates: dose: 75.0 mg/kg/injection, schedule: Q04DX004 (ip), vehicle: saline with Tween-80.
Where [3] appears, read: dose: 150.0 mg/kg/injection, schedule: Q04DX004 (ip), vehicle: saline with Tween-80.
Setting [4] is: dose: 300.0 mg/kg/injection, schedule: Q04DX004 (ip), vehicle: saline with Tween-80.
Where [5] appears, read: dose: 50.0 mg/kg/injection, schedule: Q04DX004 (ip), vehicle: saline.
[6] abbreviates: dose: 100.0 mg/kg/injection, schedule: Q04DX004 (ip), vehicle: saline.
The mark [7] stands for this setting: dose: 200.0 mg/kg/injection, schedule: Q04DX004 (ip), vehicle: saline.
The mark [8] stands for this setting: dose: 18.75 mg/kg/injection, schedule: Q04DX004 (ip), vehicle: saline with Tween-80.
Setting [9] is: dose: 25.0 mg/kg/injection, schedule: Q04DX004 (ip), vehicle: saline with Tween-80.
[10] abbreviates: dose: 50.0 mg/kg/injection, schedule: Q04DX004 (ip), vehicle: saline with Tween-80.
Setting [11] is: dose: 100.0 mg/kg/injection, schedule: Q04DX004 (ip), vehicle: saline with Tween-80.
The mark [12] stands for this setting: dose: 6.25 mg/kg/injection, schedule: Q04DX004 (ip), vehicle: saline with Tween-80.
The mark [13] stands for this setting: dose: 12.5 mg/kg/injection, schedule: Q04DX004 (ip), vehicle: saline with Tween-80.

With `O=C(O)C(O)C(O)C1[O][Sb][O]C1C(=O)O` (stereo unspecified), the T/C runs as follows: (dose: 9.37 mg/kg/injection, schedule: Q04DX004 (ip), vehicle: saline) 100 % of control; (dose: 9.38 mg/kg/injection, schedule: Q04DX004 (ip), vehicle: saline) 107 % of control; (dose: 18.75 mg/kg/injection, schedule: Q04DX004 (ip), vehicle: saline) 99 % of control and 110 % of control; (dose: 37.5 mg/kg/injection, schedule: Q04DX004 (ip), vehicle: saline) 110 % of control and 114 % of control; (dose: 75.0 mg/kg/injection, schedule: Q04DX004 (ip), vehicle: saline) 99 % of control and 111 % of control.

In the case of `CC1CC(Nc2ccc(NC3=CC(=O)OC(C)C3)cc2)=CC(=O)O1` (stereo unspecified), the T/C is, setting by setting: under setting [1], 99 % of control; under setting [2], 97 % of control; under setting [3], 94 % of control; under setting [4], 90 % of control.

With `CNC(=O)/C=C/C1=CN2C(=O)c3ccc(C)c(O)c3NC(OC)C2C1` (stereo unspecified), the T/C (dose: 12.5 micrograms/kg/injection, schedule: Q04DX004 (ip), vehicle: saline) is 101 % of control and 108 % of control; the T/C (dose: 25.0 micrograms/kg/injection, schedule: Q04DX004 (ip), vehicle: saline) was 104 % of control and 124 % of control; the T/C (dose: 50.0 micrograms/kg/injection, schedule: Q04DX004 (ip), vehicle: saline) is 95 % of control and 108 % of control; the T/C (dose: 100.0 micrograms/kg/injection, schedule: Q04DX004 (ip), vehicle: saline) was 98 % of control and 115 % of control; the T/C (dose: 200.0 micrograms/kg/injection, schedule: Q04DX004 (ip), vehicle: saline) was 112 % of control.

`COc1cc([C@@H]2c3cc4c(cc3[C@H](O)[C@H]3COC(=O)[C@H]23)OCO4)cc(OC)c1OC`: the T/C (dose: 2.0 mg/kg/injection, schedule: Q04DX004 (ip), vehicle: saline with Tween-80) was 117 % of control; the T/C (dose: 5.8 mg/kg/injection, schedule: Q04DX004 (ip), vehicle: saline with Tween-80) was 117 % of control; the T/C (dose: 15.98 mg/kg/injection, schedule: Q04DX004 (ip), vehicle: saline with Tween-80) was 154 % of control; the T/C (dose: 44.4 mg/kg/injection, schedule: Q04DX004 (ip), vehicle: saline with Tween-80) was 151 % of control.

Turning to `O=c1[nH]cc(F)c(=O)[nH]1`, the T/C was 104 % of control and 122 % of control (dose: 12.5 mg/kg/injection, schedule: Q04DX004 (ip), vehicle: saline); 111 % of control and 120 % of control (dose: 25.0 mg/kg/injection, schedule: Q04DX004 (ip), vehicle: saline).

Consider `N#CC1C(=O)NC(=S)NC1c1ccc2c(c1)CCC2` (stereo unspecified), for which the T/C under setting [5] was 103 % of control, the T/C under setting [6] is 97 % of control and the T/C under setting [7] is 102 % of control.

As to `COC1=CC(=O)C(OC)=C(OC)C1=O`, the T/C under setting [8] was 95 % of control; the T/C under setting [1] is 95 % of control; the T/C under setting [2] is 99 % of control; the T/C under setting [3] was 97 % of control; the T/C under setting [4] is 93 % of control.

As to `c1ccc([Te][Te]c2ccccc2)cc1`, the T/C is 106 % of control under setting [8], 100 % of control under setting [1] and 98 % of control under setting [2].

With `CCOC(=O)/C=C1\CCC(C)n2c1nccc2=O` (stereo unspecified), the T/C was 102 % of control under setting [1]; 86 % of control under setting [2]; 96 % of control under setting [3]; 101 % of control under setting [4]; 106 % of control (dose: 600.0 mg/kg/injection, schedule: Q04DX004 (ip), vehicle: saline with Tween-80).

On to `CC(=O)C[n+]1ccccc1Sc1ccc(Cl)cc1`, for which the T/C was 98 % of control under setting [9], 86 % of control under setting [10] and 88 % of control under setting [11].

For the molecule `Nc1ncnc2c1ncn2C1CC2[O][Sn]([c]3ccccc3)([c]3ccccc3)[O]CC2O1` (stereo unspecified), the T/C is 95 % of control (dose: 31.13 mg/kg/injection, schedule: Q04DX004 (ip), vehicle: distilled water + Tween-80); 92 % of control (dose: 62.5 mg/kg/injection, schedule: Q04DX004 (ip), vehicle: distilled water + Tween-80); 101 % of control (dose: 125.0 mg/kg/injection, schedule: Q04DX004 (ip), vehicle: distilled water + Tween-80); 101 % of control (dose: 250.0 mg/kg/injection, schedule: Q04DX004 (ip), vehicle: distilled water + Tween-80); 104 % of control (dose: 500.0 mg/kg/injection, schedule: Q04DX004 (ip), vehicle: distilled water + Tween-80).

As for `CN(C)CCNc1ccc(CO)c2sc3ccc(O)cc3c(=O)c12`, the T/C is 155 % of control under setting [10]; 119 % of control under setting [11]; 158 % of control (dose: 400.0 mg/kg/injection, schedule: Q04DX004 (ip), vehicle: saline with Tween-80).

Regarding `NCCCC(N)(C(=O)O)C(F)F` (stereo unspecified), the T/C is 96 % of control under setting [5]; 99 % of control under setting [6]; 99 % of control under setting [7]; 99 % of control (dose: 400.0 mg/kg/injection, schedule: Q04DX004 (ip), vehicle: saline); 102 % of control (dose: 800.0 mg/kg/injection, schedule: Q04DX004 (ip), vehicle: saline).

With `Cc1c2ccccc2cc2cccc[n+]12`, the T/C was 100 % of control (dose: 10.0 mg/kg/injection, schedule: Q04DX004 (ip), vehicle: saline); 96 % of control (dose: 20.0 mg/kg/injection, schedule: Q04DX004 (ip), vehicle: saline); 96 % of control (dose: 40.0 mg/kg/injection, schedule: Q04DX004 (ip), vehicle: saline).

As to `CCN1CCC(=C(c2ccccc2)c2ccccc2)C1`, the T/C (dose: 18.75 mg/kg/injection, schedule: Q04DX004 (ip), vehicle: Klucel (hydroxypropylcellulose) (HPC)) is 105 % of control and the T/C (dose: 37.5 mg/kg/injection, schedule: Q04DX004 (ip), vehicle: Klucel (hydroxypropylcellulose) (HPC)) was 99 % of control.

Turning to `N[C@@H](Cc1c[nH]c2ccccc12)C(=O)Nc1nncs1`, the T/C is 102 % of control (dose: 16.67 mg/kg/injection, schedule: Q03HX012 (ip), vehicle: saline); 101 % of control (dose: 33.34 mg/kg/injection, schedule: Q03HX012 (ip), vehicle: saline); 109 % of control (dose: 66.67 mg/kg/injection, schedule: Q03HX012 (ip), vehicle: saline); 95 % of control (dose: 100.0 mg/kg/injection, schedule: Q04DX004 (ip), vehicle: suspension in saline); 120 % of control (dose: 133.34 mg/kg/injection, schedule: Q03HX012 (ip), vehicle: saline); 111 % of control (dose: 200.0 mg/kg/injection, schedule: Q04DX004 (ip), vehicle: suspension in saline). Further, the T/C reads like this: (dose: 266.67 mg/kg/injection, schedule: Q03HX012 (ip), vehicle: saline) 120 % of control; (dose: 400.0 mg/kg/injection, schedule: Q04DX004 (ip), vehicle: suspension in saline) 101 % of control; (dose: 800.0 mg/kg/injection, schedule: Q04DX004 (ip), vehicle: suspension in saline) 118 % of control.

For the molecule `O=C1C2CC=CCC2C(=O)N1SC(Cl)(Cl)Cl` (stereo unspecified), the T/C runs as follows: (dose: 3.13 mg/kg/injection, schedule: Q04DX004 (ip), vehicle: saline with Tween-80) 110 % of control; under setting [12], 120 % of control; under setting [13], 91 % of control; under setting [9], 100 % of control.

Consider `CS(=O)(=O)OCCCCOS(C)(=O)=O`, for which the T/C under setting [12] was 100 % of control and the T/C under setting [13] was 104 % of control.

Consider `COc1cc(NCc2ccc3nc(N)nc(N)c3c2C)cc(OC)c1OC` (tested in a mixture with another compound), for which the T/C (dose: 10.0 mg/kg/injection, schedule: Q04DX004 (ip), vehicle: water) is 108 % of control; the T/C (dose: 20.0 mg/kg/injection, schedule: Q04DX004 (ip), vehicle: water) is 112 % of control; the T/C (dose: 40.0 mg/kg/injection, schedule: Q04DX004 (ip), vehicle: water) was 117 % of control; the T/C (dose: 80.0 mg/kg/injection, schedule: Q04DX004 (ip), vehicle: water) was 115 % of control.

For the molecule `CC[C@@H](C)[C@H]([C@H](CC(=O)N1CCC[C@@H]1[C@@H](OC)[C@H](C)C(=O)N[C@H](Cc1ccccc1)c1nccs1)OC)N(C)C(=O)[C@H](NC(=O)[C@@H](C(C)C)N(C)C)C(C)C`, the T/C reads like this: (dose: 8.0 micrograms/kg/injection, schedule: Q04DX004 (ip), vehicle: saline + alcohol) 153 % of control; (dose: 36.0 micrograms/kg/injection, schedule: Q04DX004 (ip), vehicle: saline + alcohol) 153 % of control.

For `O=c1c(-c2nn[nH]n2)cnc2sc3cc(Cl)ccc3n12`, the T/C under setting [1] was 98 % of control, the T/C under setting [2] is 95 % of control and the T/C under setting [3] was 90 % of control.
